Results on 25 compounds are retold here after patent publication US7803810B2, “Inhibitors” (Probiodrug AG, priority 2007, dated 2010).

What is called IC50 is the point on the concentration scale where inhibition reaches its midpoint. High values mean a need for much substance, low ones inhibition by little substance. Broadly, the Ki is a dissociation constant, usually derived from enzyme kinetics or from competition with a known ligand. High values mean lower affinity, low ones higher affinity.

The assay concerns the target glutaminyl cyclase (QC) (Homo sapiens, UniProt Q16769). Kind of assay: QC inhibitor assay (fluorometric / spectrophotometric QC activity assays with inhibitor added). Type of assay: biochemical. Particulars: QC inhibition, 30° C.; for Ki: fit to competitive inhibition. On the procedure:
All measurements were performed with a BioAssay Reader HTS-7000Plus for microplates (Perkin Elmer) at 30° C. QC activity was evaluated fluorometrically using […]. The samples consisted of 0.2 mM fluorogenic substrate, 0.25 U pyroglutamyl aminopeptidase (Unizyme, Horsholm, Denmark) in 0.2 M Tris/HCl, pH 8.0 containing 20 mM EDTA and an appropriately diluted aliquot of QC in a final volume of 250 μl. Excitation/emission wavelengths were 320/410 nm. The assay reactions were initiated by addition of glutaminyl cyclase. QC activity was determined from a standard curve of β-naphthylamine under assay conditions. One unit is defined as the amount of QC catalyzing the formation of 1 μmol pGlu-βNA from H-Gln-βNA per minute under the described conditions.
In a second fluorometric assay, QC was activity determined using H-Gln-AMC as substrate. Reactions were carried out at 30° C. utilizing the NOVOStar reader for microplates (BMG labtechnologies). The samples consisted of varying concentrations of the fluorogenic substrate, 0.1 U pyroglutamyl aminopeptidase (Qiagen) in 0.05 M Tris/HCl, pH 8.0 containing 5 mM EDTA and an appropriately diluted aliquot of QC in a final volume of 250 μl. Excitation/emission wavelengths were 380/460 nm. The assay reactions were initiated by addition of glutaminyl cyclase. QC activity was determined from a standard curve of 7-amino-4-methylcoumarin under assay conditions. The kinetic data were evaluated using GraFit software.
This novel assay was used to determine the kinetic parameters for most of the QC substrates. […] Samples consisted of the respective QC substrate, 0.3 mM NADH, 14 mM α-Ketoglutaric acid and 30 U/ml glutamate dehydrogenase in a final volume of 250 μl. Reactions were started by addition of QC and persued by monitoring of the decrease in absorbance at 340 nm for 8-15 min.
The initial velocities were evaluated and the enzymatic activity was determined from a standard curve of ammonia under assay conditions. All samples were measured at 30° C., using either the […]luor Plus or the Sunrise (both from TECAN) reader for microplates. Kinetic data was evaluated using GraFit software.
For inhibitor testing, the sample composition was the same as described above, except of the putative inhibitory compound added. For a rapid test of QC-inhibition, samples contained 4 mM of the respective inhibitor and a substrate concentration at 1 KM. For detailed investigations of the inhibition and determination of Ki-values, influence of the inhibitor on the auxiliary enzymes was investigated first. […] The inhibitory constant was evaluated by fitting the set of progress curves to the general equation for competitive inhibition using GraFit software.

Chain of glutaminyl cyclase (QC) (Q16769 29-361): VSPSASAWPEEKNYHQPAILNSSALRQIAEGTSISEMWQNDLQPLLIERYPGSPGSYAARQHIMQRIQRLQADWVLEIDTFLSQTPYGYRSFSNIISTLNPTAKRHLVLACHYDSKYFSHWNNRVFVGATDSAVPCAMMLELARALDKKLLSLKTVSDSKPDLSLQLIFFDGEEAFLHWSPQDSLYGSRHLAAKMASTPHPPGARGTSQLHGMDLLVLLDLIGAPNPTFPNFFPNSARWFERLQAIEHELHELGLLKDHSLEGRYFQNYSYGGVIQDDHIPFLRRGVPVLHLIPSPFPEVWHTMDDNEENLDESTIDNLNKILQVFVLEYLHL

`c1ccc(COc2ccccc2-c2cccn3cncc23)cc1` [Example 15, 8-(2-(benzyloxy)phenyl)H-imidazo[1,5-a]pyridine] had an IC50 of 23.6 µM and a Ki of 5380 nM.
For `c1ccc(-c2ccccc2-c2cccn3cncc23)cc1` [Example 18, 8-(biphen-2-yl)H-imidazo[1,5-a]pyridine] the same measures were 36.5 µM and 11000 nM.
The compound `Fc1cccc(-c2cccn3cncc23)c1` [Example 6, 8-(3-fluorophenyl)H-imidazo[1,5-a]pyridine] displayed an IC50 of 9.71 µM and a Ki of 2020 nM.
Compound `c1cc(-c2ccc3c(c2)OCCO3)c2cncn2c1` [Example 25, 8-(2,3-dihydrobenzo[b][1,4]dioxin-7-yl)H-imidazo[1,5-a]pyridine] returned an IC50 of 9.17 µM and a Ki of 1190 nM.
In turn, `Fc1ccccc1-c1cccn2cncc12` [Example 5, 8-(2-fluorophenyl)H-imidazo[1,5-a]pyridine] showed an IC50 of 20.6 µM and a Ki of 3140 nM.
In turn, `Clc1ccc(-c2cccn3cncc23)cc1` [Example 10, 8-(4-chlorophenyl)H-imidazo[1,5-a]pyridine] yielded an IC50 of 5.51 µM and a Ki of 1110 nM.
As for `Clc1cccc(-c2cccn3cncc23)c1` [Example 9, 8-(3-chlorophenyl)H-imidazo[1,5-a]pyridine], the IC50 is 17.2 µM and the Ki was 2250 nM.
As for `CCOc1ccc(-c2cccn3cncc23)cc1` [Example 22, 8-(4-ethoxyphenyl)H-imidazo[1,5-a]pyridine], the IC50 came out at 14.3 µM and the affinity, expressed as Ki, was 1890 nM.
For `COc1cccc(-c2cccn3cncc23)c1` [Example 13, 8-(3-methoxyphenyl)H-imidazo[1,5-a]pyridine] the same measures were 6.19 µM and 1100 nM.
In turn, `CC(C)Cc1cccn2cncc12` [Example 3, 8-isobutylH-imidazo[1,5-a]pyridine] returned an IC50 of 20 µM and a Ki of 3700 nM.
In the case of `COc1ccc(-c2cccn3cncc23)cc1OC` [Example 26, 8-(3,4-dimethoxyphenyl)H-imidazo[1,5-a]pyridine], the IC50 stood at 15.4 µM and the affinity, expressed as Ki, was 9380 nM.
For `c1ccc(-c2cccn3cncc23)cc1` [Example 4, 8-phenylH-imidazo[1,5-a]pyridine] the same measures were 8.22 µM and 1300 nM.
In turn, `c1ccc(-c2cccc(-c3cccn4cncc34)c2)cc1` [Example 19, 8-(biphen-3-yl)H-imidazo[1,5-a]pyridine] came in with an IC50 of 10.9 µM and a Ki of 2510 nM.
For the compound `c1ccc(COc2cccc(-c3cccn4cncc34)c2)cc1` [Example 16, 8-(3-(benzyloxy)phenyl)H-imidazo[1,5-a]pyridine], the IC50 amounted to 7.81 µM and the Ki came to 1480 nM.
Turning to `COc1c(C)cc(-c2cccn3cncc23)cc1C` [Example 27, 8-(4-methoxy-3,5-dimethylphenyl)H-imidazo[1,5-a]pyridine], half-maximal inhibition (IC50) was put at 27.4 µM and the Ki was 4920 nM.
For `CCCCc1cccn2cncc12` [Example 1, 8-butylH-imidazo[1,5-a]pyridine] the same measures were 13.2 µM and 3700 nM.
`Fc1ccc(-c2cccn3cncc23)cc1` [Example 7, 8-(4-fluorophenyl)H-imidazo[1,5-a]pyridine] gave an IC50 of 10.6 µM and a Ki of 1870 nM.
Regarding `COc1ccc(-c2cccn3cncc23)cc1C` [Example 24, 8-(4-methoxy-3-methylphenyl)H-imidazo[1,5-a]pyridine], the midpoint of inhibition, the IC50, lay at 26.4 µM and affinity was put at a Ki of 2660 nM.
Take `c1cc(-c2ccc3c(c2)OCO3)c2cncn2c1` [Example 23, 8-(benzo[d][1,3]dioxol-6-yl)H-imidazo[1,5-a]pyridine]: the IC50 amounted to 29.2 µM and the affinity corresponds to a Ki of 3460 nM.
In turn, `Clc1ccccc1-c1cccn2cncc12` [Example 8, 8-(2-chlorophenyl)H-imidazo[1,5-a]pyridine] displayed an IC50 of 47.7 µM and a Ki of 15200 nM.
Compound `c1ccc(Cc2cccn3cncc23)cc1` [Example 2, 8-benzylH-imidazo[1,5-a]pyridine] yielded an IC50 of 18.9 µM and a Ki of 5500 nM.
Take `FC(F)(F)Oc1ccccc1-c1cccn2cncc12` [Example 21, 8-(2-(trifluoromethoxy)phenyl)H-imidazo[1,5-a]pyridine]: the IC50 was 36.5 µM and the Ki was 14500 nM.
For `c1ccc(COc2ccc(-c3cccn4cncc34)cc2)cc1` [Example 17, 8-(4-(benzyloxy)phenyl)H-imidazo[1,5-a]pyridine] the same measures were 4.36 µM and 750 nM.
For `c1ccc(-c2ccc(-c3cccn4cncc34)cc2)cc1` [Example 20, 8-(biphen-4-yl)H-imidazo[1,5-a]pyridine] the same measures were 20.6 µM and 2130 nM.
`COc1ccccc1-c1cccn2cncc12` [Example 12, 8-(2-methoxyphenyl)H-imidazo[1,5-a]pyridine] yielded an IC50 of 13.6 µM and a Ki of 3980 nM.
